Reference: patent publication US11690845B2, “Methods of administering elagolix” (priority 2020, dated 2023)

How the values were obtained:
[1] = Drug interaction studies: pharmacokinetics of co-administered drug in the presence of elagolix; type: in vivo, human; conditions: for changes in exposures when co-administered with elagolix: elagolix 300 mg twice daily
Experimental: Drug interaction studies were performed with elagolix and other drugs likely to be co-administered and with drugs commonly used as probes for pharmacokinetic interactions. Tables 7 and 8 summarize the pharmacokinetic effects when elagolix was co-administered with these drugs.

[2] = clinical; conditions: human, in vivo
Experimental: Subjects: Twenty adult premenopausal female subjects were enrolled in the study.
Beginning on Day 3, subjects received elagolix 300 mg BID under fasting conditions every day until Day 10. […] Doses of elagolix were separated by approximately 12 hours.
Testing was performed for CYP2C19 variants including the *2 (rs4244285), *3 (rs4986893), *4 (rs28399504), *8 (rs41291556), *10 (rs6413438) and *12 (rs55640102) alleles.
Safety was evaluated during confinement and at each study visit through adverse event monitoring, vital signs measurements, physical examinations, and routine laboratory tests.

[3] = Drug interactions: effects of ORIAHNN on plasma exposure of other drugs; conditions: co-administration of ORIAHNN
[4] = test system: CYP3A; assay: Substrate of / metabolism by CYP3A; type: in vitro ADME
[5] = Drug-drug interaction study: effect of elagolix on pharmacokinetics of CYP2B6 substrate bupropion and OH-bupropion; safety; conditions: for Tmax / Metabolite to Parent AUCinf Ratio / Metabolite to Parent AUCt Ratio / Metabolite to Parent Cmax Ratio: median; for Tmax: N = 24; for t1/2: harmonic mean; for AUCinf / AUCt / Cmax: mean
Experimental: Subjects: Twenty four (24) adult premenopausal women in generally good health participated in this study.
Elagolix 300 mg BID (as 300 mg immediate release tablets) was administered in the morning and evening on days 1 through 14 in period 2. […] No food was consumed for 2 hours prior to the evening doses of elagolix continuing through 2 hours after. The doses of elagolix were separated by approximately 12 hours.
Individual PK parameters (peak concentration [Cmax] and area under the concentration-time curve [AUC]) were estimated using noncompartmental methods.
Central value ratios (90% confidence intervals) for Cmax, AUC, and metabolite to parent ratios (MPRs) (day 11, period 2 vs. day 1, period 1) were calculated to assess the DDIs. Safety was evaluated through assessment of adverse events, vital signs, electrocardiogram, and clinical laboratory tests.
Adverse events (AEs) were monitored throughout the DDI study. Additional safety evaluations included monitoring of physical examinations, vital signs, electrocardiogram variables, and clinical laboratory values were assessed

[6] = Digoxin 0.5 mg single dose, elagolix 200 mg twice daily ×10 days, N 11
[7] = Bupropion + Elagolix (Day 11, Period 2)
[8] = Bupropion Alone (Day 1, Period 1)
[9] = single 150 mg bupropion, elagolix 300 mg twice daily for 10 preceding days, interval in brackets
[10] = Midazolam 2 mg single dose, elagolix 150 mg once daily ×13 days, N 11
[11] = Midazolam 2 mg single dose, elagolix 300 mg twice daily ×11 days, N 20
[12] = Rosuvastatin 20 mg once daily, elagolix 300 mg twice daily ×7 days, N 10

CC(NC(C)(C)C)C(=O)c1cccc(Cl)c1.Cl (racemic) [bupropion, (±)-1-(3-chlorophenyl)-2-[(1,1-dimethylethyl)amino]-1-propanone hydrochloride]
changes in exposures when co-administered with elagolix [1]: No clinically significant changes

COc1ccc2nc([S+]([O-])Cc3ncc(CO)c(OC)c3C)[nH]c2c1 (stereo not shown) [5-hydroxyomeprazole]
decrease in AUCinf with elagolix [2]: 20-30%
AUCinf ([2]; 40 mg): 1880 ng·h/mL
AUCt ([2]; 40 mg): 1820 ng·h/mL
Cmax ([2]; 40 mg): 491 ng/mL
t1/2 ([2]; 40 mg): 1.57 h
decrease in AUCinf with elagolix ([2]; 300 mg): ~25%
decrease in Cmax with elagolix ([2]; 300 mg): approximately 30%

C[C@H]1O[C@@H](O[C@H]2[C@@H](O)C[C@H](O[C@H]3[C@@H](O)C[C@H](O[C@H]4CC[C@@]5(C)[C@H](CC[C@@H]6[C@@H]5C[C@@H](O)[C@]5(C)[C@@H](C7=CC(=O)OC7)CC[C@]65O)C4)O[C@@H]3C)O[C@@H]2C)C[C@H](O)[C@@H]1O [digoxin]
Effect on Plasma Exposure of Concomitant Drug (AUC) [3]: ↑ digoxin
Ratio (90% CI) AUC, co-administration with elagolix vs medication alone [1, 6]: 1.26
Ratio (90% CI) Cmax, co-administration with elagolix vs medication alone [1, 6]: 1.71

C[C@]12CC[C@@H]3c4ccc(O)cc4CC[C@H]3[C@@H]1CC[C@@H]2O [estradiol]
metabolism by CYP3A [4]: metabolized partially

OC(Cn1cncn1)(Cn1cncn1)c1ccc(F)cc1F [fluconazole]
changes in exposures when co-administered with elagolix [1]: No clinically significant changes

C[C@H]1NC(C)(C)CO[C@]1(O)c1cccc(Cl)c1 [hydroxybupropion]
Tmax ([5]; Bupropion + Elagolix (Day 11, Period 2), elagolix 300 mg BID): 6.0 h
t1/2 [5, 7]: 20.5 h
AUCinf [5, 7]: 17600 ng·h/mL
AUCt [5, 7]: 17000 ng·h/mL
Cmax [5, 7]: 429 ng/mL
Metabolite to Parent AUCinf Ratio [5, 7]: 15.9
Metabolite to Parent AUCt Ratio [5, 7]: 15.9
Metabolite to Parent Cmax Ratio [5, 7]: 3.92
Tmax ([5]; Bupropion Alone (Day 1, Period 1), 150 mg single dose): 10.0 h
t1/2 [5, 8]: 24.7 h
AUCinf [5, 8]: 16700 ng·h/mL
AUCt [5, 8]: 15700 ng·h/mL
Cmax [5, 8]: 323 ng/mL
Metabolite to Parent AUCinf Ratio [5, 8]: 15.7
Metabolite to Parent AUCt Ratio [5, 8]: 15.4
Metabolite to Parent Cmax Ratio [5, 8]: 3.61
increase in Cmax upon co-administration with elagolix ([5]; elagolix 300 mg BID): 32%
changes in OH-bupropion/bupropion ratios of Cmax and AUC upon co-administration with elagolix ([5]; elagolix 300 mg BID, minimal changes): ≤ 120%
AUCinf ratio, co-administration of bupropion with elagolix vs bupropion alone (A/B) [5, 9]: about 1.063
Cmax ratio, co-administration of bupropion with elagolix vs bupropion alone (A/B) [5, 9]: about 1.317

Cc1ncc2n1-c1ccc(Cl)cc1C(c1ccccc1F)=NC2 [midazolam]
Effect on Plasma Exposure of Concomitant Drug (AUC) [3]: ↓ midazolam
Ratio (90% CI) AUC, co-administration with elagolix vs medication alone [1, 10]: 0.65
Ratio (90% CI) Cmax, co-administration with elagolix vs medication alone [1, 10]: 0.81
Ratio (90% CI) AUC, co-administration with elagolix vs medication alone [1, 11]: 0.46
Ratio (90% CI) Cmax, co-administration with elagolix vs medication alone [1, 11]: 0.56

C#C[C@]1(OC(C)=O)CC[C@H]2[C@@H]3CCC4=CC(=O)CC[C@@H]4[C@H]3CC[C@@]21C [norethindrone acetate]
metabolism by CYP3A [4]: metabolized partially

COc1ccc2nc(S(=O)(=O)Cc3ncc(C)c(OC)c3C)[nH]c2c1 [omeprazole sulfone]
M:P AUCinf Ratio, Relative Bioavailability Point Estimate ([2]; female): 1.246
M:P AUCt Ratio, Relative Bioavailability Point Estimate ([2]; female): 1.497
increase in exposures with elagolix ([2]; female): ~3 fold
Cmax ([2]; female, 40 mg): 162 ng/mL
M:P AUCinf Ratio, Central Value Reference ([2]; female, 40 mg): 0.825
M:P AUCt Ratio, Central Value Reference ([2]; female, 40 mg): 0.679
RAUCinf (metabolite-to-parent AUCinf ratio) ([2]; female, 40 mg): 0.85
RAUCt (metabolite-to-parent AUCt ratio) ([2]; female, 40 mg): 0.76
increase in AUCinf with elagolix ([2]; female, 300 mg): 2.5 fold
increase in Cmax with elagolix ([2]; female, 300 mg): 2.7 fold
increase in M:P AUCinf ratio with elagolix ([2]; female, 300 mg): 25%
Cmax and AUCinf values upon co-administration with elagolix (direction of change) [2]: increased

COc1ccc2[nH]c([S+]([O-])Cc3ncc(C)c(OC)c3C)nc2c1 (stereo not shown) [omeprazole, 5-methoxy-2-[[(4-methoxy3,5-dimethyl-2-pyridinyl)methyl]sulfinyl]-1H-benzimidazole, reference compound]
Effect on Plasma Exposure of Concomitant Drug (AUC) [3]: ↑ omeprazole
decrease in AUCinf with elagolix ([2]; female): 40%
increase in AUCinf with elagolix ([2]; female, 300 mg): 1.8 fold
increase in Cmax with elagolix ([2]; female, 300 mg): 1.9 fold
increase in exposure (AUCinf) with elagolix ([2]; female, im): 2-2.5 fold
Cmax and AUCinf values upon co-administration with elagolix (direction of change) [2]: increased

CC(C)c1nc(N(C)S(C)(=O)=O)nc(-c2ccc(F)cc2)c1/C=C/[C@@H](O)C[C@@H](O)CC(=O)O [rosuvastatin]
Effect on Plasma Exposure of Concomitant Drug (AUC) [3]: ↓ rosuvastatin
Ratio (90% CI) AUC, co-administration with elagolix vs medication alone [1, 12]: 0.60
Ratio (90% CI) Cmax, co-administration with elagolix vs medication alone [1, 12]: 0.99

CN[C@H]1CC[C@@H](c2ccc(Cl)c(Cl)c2)c2ccccc21 [sertraline]
changes in exposures when co-administered with elagolix [1]: No clinically significant changes
